{"source": "patent US20070190520A1", "about": "“METHOD OF CHARACTERIZING A BIOLOGICALLY ACTIVE COMPOUND” (priority 2006, published 2007)", "test_system": "Adult stem cells from peripheral blood (CD34+/CD38−)", "experiment": "viability and cell number of peripheral blood stem cells expanded in a rotatable TVEMF bioreactor (Example 4)", "type": "cell-based", "conditions": "20 ppm added at initiation, end of 14 days, Sample 2 cells from an individual with known liver damage", "experimental": "The rotatable bioreactor may preferably be filled with culture medium consisting of Isocove's modified Dulbecco's medium (IMDM) (GIBCO, Grand Island N.Y.), supplemented with 5% human albumin, 100 ng/ml recombinant human G-CSF (Amgen Inc., Thousand Oaks, Calif.), and 100 ng/ml recombinant human stem cell factor (SCF) (Amgen). In addition, D-Penicillamine [D(−)-2-Amino-3-mercapto-3-methylbutonoic acid] (Sigma-Aldrich) a copper chelating agent, dissolved in DMSO, may preferably be introduced to the culture medium in the rotatable bioreactor in an amount of 10 ppm. Adult stem cells from peripheral blood (CD34+/CD38−) may preferably be placed in the culture chamber of the rotatable bioreactor at a concentration of 0.75×10^6 cells/ml.\nTwo samples of peripheral blood stem cells should preferably be prepared by this method. Sample 1 should preferably be from an individual with no known liver damage. Sample 2 should preferably be from an individual with known liver damage. The samples should be prepared as above and placed in two different rotatable bioreactors under the conditions noted in Example 1 and at the same concentrations.", "data": [{"smiles": "CC(=O)Nc1ccc(O)cc1", "note": "[acetaminophen]", "values": [{"measurement": "viability and number of cells counted", "result": "neither die nor grow, but rather, remain unchanged"}]}]}
